Holding throughout (assay): NCI-60 cell line screen, 48 h
The test system of experiment [1] is SK-MEL-5 melanoma.
In experiment [2] the test system is COLO 205 colon.
For experiment [3], the system named is SK-OV-3 ovarian.
The subject of experiment [4] is KM12 colon.
Experiment [5] concerns HCT-15 colon.
Experiment [6] deals with HT29 colon.
In experiment [7] the test system is PC-3 prostate.
Experiment [8] concerns 786-0 renal.
Experiment [9] relates to NCI-H460 lung.
Experiment [10] has as its system TK-10 renal.

The results in this text go back to PubChem BioAssay (NCI).

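Method: 48-hour compound exposure of cells in 96-well plates, five concentrations, linear interpolation of endpoints. Abbreviation: GI50, concentration required for 50% inhibition of growth. TGI marks complete inhibition of growth.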 Bounds are passed on as bounds.

`CCN(CC)c1ccc(N=C2C=C(C(=O)Nc3ccc(S(C)(=O)=O)cc3)C(=O)c3ccccc32)c(C)c1`: the GI50 in [1] was 5.84 µM; in [2], 32.7 µM; in experiment [3] it was 9.45 µM; in experiment [4], 1.03 µM; in experiment [5], 5.28 µM; in [6], greater than 100 µM. The GI50 in [7] was 1.05 µM; in [8] it was greater than 100 µM; in experiment [9], 35 µM; in [10], greater than 100 µM. Besides, the TGI in [1], in [2], in experiment [3], in experiment [4], in experiment [5] and in [6] was greater than 100 µM throughout. The TGI in experiment [7], in experiment [8], in experiment [9] and in [10] was greater than 100 µM in each case.

As to `COC(=O)Nc1nc2ccc(Oc3ccc(NC(=O)Nc4cccc(Br)c4)cc3)cc2[nH]1`, the GI50 in [1] was 0.948 µM; in [2], 1.48 µM; in experiment [3] it was 2.95 µM; in experiment [4], 0.119 µM; in [5], 2.3 µM; in [6], 0.7 µM. Also, the GI50 in experiment [7] was 1.85 µM; in [8], 3.9 µM; in experiment [9], 1.27 µM; in experiment [10], 4.66 µM. Moreover, the TGI was 11.9 µM in experiment [1]; 7 µM in [2]; 15.3 µM in [3]; 3.97 µM in experiment [4]; greater than 25 µM in experiment [5]; 3.28 µM in experiment [6]. In addition, the TGI in experiment [7] was greater than 12.7 µM; in experiment [8], greater than 24.1 µM; in [9], greater than 13.5 µM; in [10] it was 12 µM.

Consider `C=C(C)C(=O)OC1CC2(C)OC2CC(OC(C)=O)/C(C)=C/C2OC(=O)C(=C)C21` (stereo not given), for which the TGI in experiment [1] was 21.1 µM; in experiment [2], 3.42 µM; in [3] it was greater than 91.3 µM; in [4], 33.7 µM; in experiment [5], 1.86 µM; in experiment [6], 6.98 µM. The TGI in experiment [7] was 22.5 µM; in experiment [8], 6.37 µM; in [9], 9.29 µM; in [10], 14.1 µM.

For `Cc1ccccc1S(=O)(=O)N1[C@H](c2ccc(Cl)cc2)C(C(=O)N[C@@H](Cc2ccccc2)C(N)=O)=C[C@@H]1C(C)(C)C`, the GI50 in experiment [1] is 6.8 µM; in experiment [2], 6.8 µM; in [3] it was 8.5 µM; in experiment [4], 4.49 µM; in [5] it was 2.38 µM; in experiment [6], 3.49 µM. The GI50 was 2.39 µM in [7], 9.46 µM in [8], 4.7 µM in [9] and 9.43 µM in experiment [10]. The TGI in [1] was determined as 13.5 µM; in experiment [2] it was 14.3 µM; in experiment [3], 21.7 µM; in [4] it was 13.3 µM; in experiment [5], 9.5 µM; in experiment [6], 10 µM. The TGI in [7] turned out to be 12.2 µM; in [8], 23.9 µM; in [9] it was 14.2 µM; in experiment [10], 19.1 µM.

On to `COc1ccc(C2=CC(c3cc(OC)c(OC)c(OC)c3)NC(=O)N2)cc1OC` (stereo not given), for which the GI50 in [1] is 4.41 µM; in [2] it was 2.65 µM; in experiment [3], 3.67 µM; in [4], 2.25 µM; in [5], 2.9 µM; in [6], 4.05 µM. Besides, the GI50 in experiment [7] is 10.2 µM; in experiment [8] it was 4.65 µM; in experiment [9] it was 1.92 µM; in [10] it was 4.48 µM. For the same molecule, the TGI was 16.5 µM in experiment [1]; 6.69 µM in [2]; greater than 100 µM in [3]; 6.12 µM in [4]; 17.7 µM in experiment [5]; 15.1 µM in experiment [6]. The TGI in experiment [7] is greater than 100 µM; in experiment [8], 15.6 µM; in experiment [9] it was 5 µM; in experiment [10], 41.2 µM.

Take `O=C(Nc1ccc(Cl)cc1)c1cc2c(cc1O)[nH]c1ccccc12`: the GI50 is 1.74 µM in experiment [1]; 2.39 µM in experiment [2]; 2.32 µM in experiment [3]; 2.89 µM in experiment [4]; 3.24 µM in experiment [5]; 5.08 µM in [6]. The GI50 was 3.96 µM in [7], 2.76 µM in [8], 3.11 µM in [9] and 2.54 µM in experiment [10]. Further, the TGI was 3.41 µM in [1]; 5.53 µM in experiment [2]; 6.51 µM in [3]; 7.27 µM in [4]; 13.1 µM in experiment [5]; 17.9 µM in experiment [6]. For the same molecule, the TGI was 22.8 µM in [7], 7.54 µM in experiment [8], 10.2 µM in experiment [9] and 6.56 µM in experiment [10].

Consider `CC1=C(C(=O)Nc2ccc3[nH]ncc3c2)C(c2ccc(F)cc2)NC(=O)N1` (stereo not given), for which the GI50 in experiment [1], in experiment [2], in experiment [3], in [4], in experiment [5] and in [6] was greater than 25 µM throughout. Further, the GI50 in experiment [7], in experiment [8], in experiment [9] and in experiment [10] was greater than 25 µM each time. For the same molecule, the TGI in [1], in experiment [2], in experiment [3], in experiment [4], in [5] and in [6] was greater than 25 µM throughout. The TGI in experiment [7], in experiment [8], in experiment [9] and in [10] was greater than 25 µM each time.

As for `NC1C2C(CC(=O)O)OCC=C3CN4CCC1(C(=O)C(=O)O)C4CC32` (stereo not given), the TGI in experiment [1], in experiment [2], in [3], in experiment [4], in experiment [5] and in [6] was greater than 100 µM each time. Also, the TGI in experiment [7], in experiment [8], in [9] and in [10] was greater than 100 µM throughout.

With `OCCCCC#Cc1ccccc1C#Cc1ccccc1F`, the GI50 in [1] is 23.6 µM; in experiment [2], 16.4 µM; in experiment [3] it was 23.8 µM; in [4], 18.8 µM; in experiment [5] it was 18 µM; in experiment [6], 52 µM. Also, the GI50 in experiment [7] was 20 µM; in experiment [8], 14.3 µM; in experiment [9], 25.9 µM; in [10], 20.8 µM. Further, the TGI in experiment [1] is 52.3 µM; in experiment [2] it was 31.3 µM; in experiment [3] it was 58.4 µM; in [4], 37.7 µM; in experiment [5] it was 32.5 µM; in [6], greater than 100 µM. The TGI was found to be 48.2 µM in [7], 29.8 µM in experiment [8], 60.5 µM in experiment [9] and 49.7 µM in experiment [10].

Consider `CCCCCCCCCCCCCCCC(=O)OCC1OC(n2cnc3c(=S)nc(N)[nH]c32)C(OC(=O)CCCCCCCCCCCCCCC)C1OC(=O)CCCCCCCCCCCCCCC` (stereo not given), for which the GI50 in experiment [1] was greater than 47 µM; in experiment [2] it was 7.39 µM; in experiment [3], 1.55 µM; in [4] it was 9.48 µM; in [5], 6.17 µM; in experiment [6], 3.22 µM. The GI50 in [7] is 9.96 µM; in experiment [8], 2.46 µM; in [9], 2.8 µM; in experiment [10], 1.99 µM. In addition, the TGI in experiment [1] is greater than 50 µM; in [2] it was 35.8 µM; in [3] it was greater than 27.8 µM; in experiment [4], greater than 50 µM; in experiment [5], greater than 50 µM; in [6] it was greater than 50 µM. The TGI is greater than 50 µM in experiment [7], greater than 50 µM in [8], greater than 22.6 µM in experiment [9] and greater than 50 µM in experiment [10].

Regarding `CC/C=C\C/C=C\C[C@H](O)C/C=C1/C(=O)C=C[C@H]1C/C=C\CCC(=O)OC`, the GI50 in experiment [1] is 1.94 µM; in experiment [2], 3.87 µM; in [3], greater than 8.25 µM; in experiment [4], 2.2 µM; in [5], 1.85 µM; in experiment [6] it was 2.68 µM. Also, the GI50 in experiment [7] was 3.75 µM; in experiment [8] it was 3.53 µM; in experiment [9], greater than 8.25 µM; in [10], greater than 8.25 µM. Besides, the TGI in experiment [1] is 6.21 µM; in experiment [2] it was greater than 8.25 µM; in experiment [3], greater than 8.25 µM; in [4], greater than 8.25 µM; in [5], 6.47 µM; in experiment [6], 6.79 µM. For the same molecule, the TGI in [7], in [8], in experiment [9] and in experiment [10] was greater than 8.25 µM throughout.
